Measurements as given in ChEMBL document CHEMBL4513160, “CO-ADD screening of MMV (CH) - Small Polar Library”.
≈ marks a conversion by molar mass, not a printed value.

Legend:
Acinetobacter baumannii = experiment: microbe, parasite or virus in culture; settings: ATCC 19606, 18 h, ASSAY_TEST Inhibition of Bacterial Growth, detection method Absorption (OD600), MEDIA CAMHB, plate type 384well, NBS, CORNING #3640
Description: Antibacterial activity against Acinetobacter baumannii ATCC 19606 (CO-ADD:GN_034); MIC in CAMBH media using NBS plates, by OD600

Pseudomonas aeruginosa [1] = experiment: microbe, parasite or virus in culture; settings: ATCC 27853, 18 h, ASSAY_TEST Inhibition of Bacterial Growth, detection method Absorption (OD600), MEDIA CAMHB, plate type 384well, NBS, CORNING #3640
Description: Antibacterial activity against Pseudomonas aeruginosa ATCC 27853 (CO-ADD:GN_042); MIC in CAMBH media using NBS plates, by OD(600)

Pseudomonas aeruginosa [2] = experiment: Antibacterial activity against Pseudomonas aeruginosa PAO397 [PAO1 d(mexAB-oprM) d(mexCD-oprJ) d(mexEF-oprN) d(mexJKL) d(mexXY) d(opmH)] (CO-ADD:GN_211); MIC in CAMBH media using NBS plates, by OD(600); format: functional; settings: ASSAY_TEST Inhibition of Bacterial Growth, detection method Absorption (OD600), MEDIA CAMHB, plate type 384well, CORNING #3640, time 18 hr

Structure (SMILES)	MIC (Acinetobacter baumannii)	MIC (Pseudomonas aeruginosa [1])	MIC (Pseudomonas aeruginosa [2])
Ic1nnnn1-c1ccccc1	> 300 µM	60 µM (≈ 16.3 µg/mL)	25 µM (≈ 6.8 µg/mL)
OCCNCCNCc1ccc(-c2cccc(Cl)c2)o1	> 300 µM	> 300 µM	> 300 µM
NC(=O)Nc1cccc(C(=O)Nc2ccc(Cl)cn2)c1	> 300 µM	> 300 µM	> 300 µM
CCCOc1ccc(NS(=O)(=O)N(C)C)cc1Cl	> 300 µM	> 300 µM	> 300 µM
CC(O)CN1C(=O)C=CC1=O (stereo not given)	> 300 µM	> 300 µM	> 300 µM
NCCNS(=O)(=O)c1ccc(-c2ccccc2)cc1	> 300 µM	> 300 µM	> 300 µM
COc1ncccc1-c1csc(NCCSC)n1	> 300 µM	> 300 µM	> 300 µM
c1ccc2c(N3CCNCC3)cncc2c1	> 300 µM	> 300 µM	> 300 µM
CCc1nnc(NC(=O)c2cc(OC)ccn2)s1	> 300 µM	> 300 µM	> 300 µM
CCCOc1ccccc1C(=O)NC1CCNC1 (stereo not given)	> 300 µM	> 300 µM	25 µM (≈ 6.21 µg/mL)
O=C(c1cnsn1)N1CCN(c2ccccn2)CC1	> 300 µM	> 300 µM	> 300 µM
CCOc1cc(Cl)ccc1CN	> 300 µM	> 300 µM	> 300 µM
COc1ccc(C2NC(=O)c3cccnc3N2)cc1F (stereo not given)	> 300 µM	> 300 µM	> 300 µM
OC1(CNCc2ccc(Br)c3cccnc23)CCOC1 (stereo not given)	> 300 µM	> 300 µM	> 300 µM
NCC1CCOc2ccccc21 (stereo not given)	> 300 µM	> 300 µM	> 300 µM
OCC1(O)CCCN(c2ccnc3ccc(Cl)cc23)C1 (stereo not given)	> 300 µM	> 300 µM	> 300 µM
CC[C@H](CO)Nc1ccnc2cc(Br)cnc12	> 300 µM	> 300 µM	> 300 µM
OC[C@@H]1CCCN1Cc1ccc(F)c2cccnc12	> 300 µM	> 300 µM	> 300 µM
CNC(=O)CCCNC(=O)Nc1nc2ccccc2s1	> 300 µM	> 300 µM	> 300 µM
O=C1c2ccccc2OCC1CN1CCOCC1 (stereo not given)	> 300 µM	> 300 µM	> 300 µM
NCCNc1ccc2ccccc2n1	> 300 µM	> 300 µM	> 300 µM
CC(C)c1ccoc1C(=O)N(C)c1cc(C#N)ccn1	> 300 µM	> 300 µM	> 300 µM
C[C@@H](N)C(=O)NCc1cc2cc(Cl)ccc2[nH]1	> 300 µM	> 300 µM	300 µM (≈ 75.5 µg/mL)

Structure (SMILES)	MIC (Acinetobacter baumannii)	MIC (Pseudomonas aeruginosa [1])	MIC (Pseudomonas aeruginosa [2])
CN1CCCC1CCSc1nc(N)c(C#N)cc1C#N (stereo not given)	> 300 µM	> 300 µM	> 300 µM
N#Cc1ncn(CC(=O)c2ccc3c(c2)CCO3)n1	> 300 µM	> 300 µM	> 300 µM
CN(C)C(=O)CNC(=O)NCc1cc(F)ccc1Br	> 300 µM	> 300 µM	> 300 µM
Cc1cc(NCCO)nc2ccccc12	> 300 µM	> 300 µM	> 300 µM
NCCNC(=O)c1ccc(-c2ccc(Cl)cc2)s1	> 300 µM	300 µM (≈ 84.2 µg/mL)	90 µM (≈ 25.3 µg/mL)
CNc1nnc(-c2ccccc2)s1	> 300 µM	> 300 µM	> 300 µM
NC(=O)C1CCN(Cc2ccc(Br)c3cccnc23)C1 (stereo not given)	> 300 µM	> 300 µM	> 300 µM
NCC(=O)N1CCCC(CCc2ccc(F)c(F)c2)C1 (stereo not given)	> 300 µM	> 300 µM	> 300 µM
NC(=O)CSc1nnc(-c2cc(Br)ccc2O)[nH]1	> 300 µM	> 300 µM	> 300 µM
NC(=O)CSc1nc(-c2ccc(Br)cc2)c[nH]1	> 300 µM	> 300 µM	300 µM (≈ 93.7 µg/mL)
C[C@@]1(N)C[C@H]1c1ccccc1	> 300 µM	> 300 µM	200 µM (≈ 29.4 µg/mL)
Cc1ccc(C)c2c(=O)cc(CN3CCC(N)C3)[nH]c12 (stereo not given)	> 300 µM	> 300 µM	> 300 µM
CCCc1cc(C(=O)NCCc2nc(C)c[nH]2)[nH]n1	> 300 µM	> 300 µM	300 µM (≈ 78.4 µg/mL)
OCc1ccncc1NCc1coc2ccccc12	> 300 µM	> 300 µM	> 300 µM
CNCCC1CCN(c2ccncc2)CC1	> 300 µM	> 300 µM	> 300 µM
Brc1ccc2c(c1)OCCNC2	> 300 µM	> 300 µM	> 300 µM
CCOc1ccc(Cl)cc1CCNS(=O)(=O)N(C)C	> 300 µM	> 300 µM	> 300 µM
Cn1ccnc1-c1noc(NC(=O)c2ccccn2)n1	> 300 µM	> 300 µM	> 300 µM
CN(Cc1ccc(O)cc1)C(=O)c1cc(Cl)c[nH]1	> 300 µM	> 300 µM	> 300 µM
Cc1cc(NC(C)CO)nc2ccccc12 (stereo not given)	> 300 µM	> 300 µM	> 300 µM
c1ccc(N2CCN(c3ncccn3)CC2)nc1	> 300 µM	> 300 µM	> 300 µM
FC(F)Oc1cccc(N2CCNCC2)c1	> 300 µM	> 300 µM	> 300 µM
